Test results reported in patent publication US9840509B2, “Heterocyclic compounds” (CADILA HEALTHCARE LIMITED, priority 2014, dated 2017).

Legend:
[1] = target: T1, recombinant purified human BTK (Homo sapiens, UniProt Q06187); assay: In vitro BTK kinase assay on ADP Glo platform; assay type: biochemical; details: 2 hr room temperature, read-out: In-vitro BTK inhibitory activity: IC50
T1 construct: purchased SignalChem, USA
Outline: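 Recombinant human BTK (3 ng/reaction) with compound dilutions in Tris pH 7.5, MgCl2/MnCl2, BSA, DTT; started with 50 µM ATP (final) and polyGln4Tyr1 substrate, 2 h at room temperature. ADP formed detected by ADP-Glo luminescence; IC50 by nonlinear fit versus uninhibited enzyme as 100%.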

CYP 2C8 = target: T2, CYP 2C8 (Homo sapiens, UniProt P10632); assay: CYP inhibition in human liver microsomes, 2C8; assay type: in vitro ADME; details: pH 7.4, @ 10 μM concn
T2 construct: from tissue; host or cells: human liver microsomes
T2 sequence (P10632 1-490): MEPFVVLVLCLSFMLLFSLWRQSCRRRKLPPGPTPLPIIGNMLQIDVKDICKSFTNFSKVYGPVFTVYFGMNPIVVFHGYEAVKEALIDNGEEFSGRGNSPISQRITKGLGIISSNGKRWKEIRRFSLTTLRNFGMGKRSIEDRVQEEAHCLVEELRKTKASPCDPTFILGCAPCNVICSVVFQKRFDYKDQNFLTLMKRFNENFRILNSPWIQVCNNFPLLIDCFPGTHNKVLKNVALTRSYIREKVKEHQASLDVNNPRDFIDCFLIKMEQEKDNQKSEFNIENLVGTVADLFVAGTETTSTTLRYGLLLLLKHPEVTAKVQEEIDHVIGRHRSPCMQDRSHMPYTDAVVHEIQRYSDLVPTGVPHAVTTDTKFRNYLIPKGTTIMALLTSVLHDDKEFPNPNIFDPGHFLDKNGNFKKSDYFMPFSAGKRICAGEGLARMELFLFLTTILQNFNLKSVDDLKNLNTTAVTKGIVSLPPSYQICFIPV
Outline: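 Test compounds at […] and 10 μM were incubated in duplicate with human liver microsomes, probe substrate and 1 mM NADPH in 100 mM phosphate buffer pH 7.4 at 37° C. Reactions were stopped with acetonitrile containing internal standard, and the marker-reaction metabolite was quantified by LC-MS/MS.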

TMD-8 cells = assay: Diffused large B cell lymphoma xenografts using TMD-8 cell line; assay type: in vivo, Female SCID mice; details: Dose: 10 mpk, po, SCID mice, Mean ± SD, n = 8
Procedure: (§1) All the animal experiments were carried out in female rats and mice, bred in-house. Animals were housed in groups of 6 animals per cage, for a week, in order to habituate them to vivarium conditions (25±4° C., 60-65% relative humidity, 12: 12 h light: dark cycle, with lights on at 7.30 am). All the animal experiments were carried out according to the internationally valid guidelines following approval by the ‘Zydus Research Center animal ethical committee’.
Diffused Large B Cell Lymphoma Xenografts Using TMD-8 Cell Line
Female SCID mice were inoculated sc with 10×10^6 TMD-8 cells in 0.1 mL of PBS to the right flank. Animals were observed twice weekly for occurrence of tumor. Once the tumors became palpable (around 100 mm^3) around 14 days after injection, treatment was initiated via oral route. Tumor volume was determined every alternate day using digital calipers and the tumor volume was calculated using the formula: [length/2]×[width^2]. Body weights of the animals were also recorded 3 times a week as a measure of treatment related side effect. Treatment was continued for two more weeks and inhibition of tumor volume compared to vehicle control was considered as efficacy endpoint.

CIA Arthritis Model = assay: Collagen induced arthritis (CIA) study in mice; assay type: in vivo; details: Dose: 10 mpk, po, Mean ± SD, n = 8
Procedure: as §1
Protocol for Collagen Induced Arthritis (CIA) Study in Mice
CIA is a frequently used animal model of human RA (Courtenay, J. S., Dallman, M. J., Dayan, A. D., Martin, A. and Mosedale, B., Nature, 1980, 283, 666-668; Bevaart, L., Vervoordeldonk, M. J., Tak, P. P., Methods Mol. Biol., 2010, 602, 181-192). Following 7 days acclimation, mice were randomly assigned to groups according body weight. Mice were immunized subcutaneously in the tail using bovine type II collagen mix in complete Freund's adjuvant (CFA). Twenty-one days after the first immunization, mice were given booster dose of collagen in incomplete Freund's adjuvant (IFA). Mice were monitored every other day after the booster dose for the development of arthritis. Mice were recruited for the study once clinical signs were visible. Eight animals were assigned each of three groups [vehicle, positive control and test compounds] and treatment was continued for four weeks and percentage inhibition in clinical score is recorded as per graded score. Body weights of the animals were also recorded 3 times a week as a measure of treatment related side effect, paw thickness measured twice a week and blood serum are collected at termination for cytokines profile.

T1 sequence (Q06187 whole entry): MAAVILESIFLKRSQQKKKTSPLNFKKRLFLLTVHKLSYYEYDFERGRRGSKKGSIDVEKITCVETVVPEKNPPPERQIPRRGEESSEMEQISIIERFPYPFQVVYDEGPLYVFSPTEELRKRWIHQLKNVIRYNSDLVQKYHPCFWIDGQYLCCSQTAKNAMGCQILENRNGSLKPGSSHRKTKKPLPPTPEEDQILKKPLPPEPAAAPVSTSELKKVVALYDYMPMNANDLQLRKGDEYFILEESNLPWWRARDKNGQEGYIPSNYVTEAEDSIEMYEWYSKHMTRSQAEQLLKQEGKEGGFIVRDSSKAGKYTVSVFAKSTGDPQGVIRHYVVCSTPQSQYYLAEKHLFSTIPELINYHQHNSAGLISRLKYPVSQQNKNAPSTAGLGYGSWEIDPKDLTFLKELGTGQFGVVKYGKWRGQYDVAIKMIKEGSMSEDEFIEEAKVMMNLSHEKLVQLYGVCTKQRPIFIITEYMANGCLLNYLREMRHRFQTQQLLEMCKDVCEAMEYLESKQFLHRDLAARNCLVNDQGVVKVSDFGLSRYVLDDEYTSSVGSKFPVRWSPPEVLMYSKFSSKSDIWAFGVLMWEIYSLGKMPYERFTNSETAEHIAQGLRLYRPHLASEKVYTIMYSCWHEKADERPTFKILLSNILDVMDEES

Row | IC50 [1] | inhibition at 10 μM (CYP 2C8) | SMILES | % Inhibition in tumor volume, Day-16, in TMD-8 Xenografts Model (TMD-8 cells) | % inhibition of clinical score, Day-28, in CIA Arthritis Model (CIA Arthritis Model)
1 | 5 nM | < 50% | C=CC(=O)N1CC2CC(N3C(=O)N(c4ccc(Oc5ccccc5)cc4)C4C(N)=NC=NC43)CC2C1 (centres unmarked) [Compound 25, 9-(2-acryloyloctahydrocyclopenta[c]pyrrol-5-yl)-6-amino-7-(4-phenoxyphenyl)-5,7-dihydro-4H-purin-8(9H)-one] | 50.2 ± 10.1% | 90.1 ± 6.3%
2 | 0.1 nM | < 50% | C=CC(=O)N1CC2CC(n3nc(-c4ccc(C(=O)N(C)c5cc(C)ccn5)cc4)c4c(N)ncnc43)CC2C1 (centres unmarked) [Compound 54, 4-(1-(2-acryloyloctahydrocyclopenta[c]pyrrol-5-yl)-4-amino-1H-pyrazolo[3,4-d]pyrimidin-3-yl)-N-methyl-N-(4-methylpyridin-2-yl)benzamide] | 92.1 ± 13.1% | 98 ± 4.5%
3 | 4 nM | < 50% | C=CC(=O)N1CC2CC(n3nc(-c4ccc(NC(=O)c5ccccn5)cc4)c4c(N)ncnc43)CC2C1 (centres unmarked) [Compound 32, N-(4-(1-(2-acryloyloctahydrocyclopenta[c]pyrrol-5-yl)-4-amino-1H-pyrazolo[3,4-d]pyrimidin-3-yl)phenyl)picolinamide] | 56.1 ± 8.2% | 100 ± 3.9%

Continued, molecule first:

Row | SMILES | IC50 [1] | inhibition at 10 μM (CYP 2C8) | % Inhibition in tumor volume, Day-16, in TMD-8 Xenografts Model (TMD-8 cells) | % inhibition of clinical score, Day-28, in CIA Arthritis Model (CIA Arthritis Model)
4 | C=CC(=O)N1CC2CC(n3nc(-c4ccc(C(=O)Nc5cc(C)ccn5)cn4)c4c(N)ncnc43)CC2C1 (centres unmarked) [Compound 42, 6-(1-(2-acryloyloctahydrocyclopenta[c]pyrrol-5-yl)-4-amino-1H-pyrazolo[3,4-d]pyrimidin-3-yl)-N-(4-methylpyridin-2-yl)nicotinamide] | 0.1 nM | < 50% | 62.2 ± 8.8% | 100 ± 4.2%
5 | C=CC(=O)N1CC2CC(n3nc(-c4ccc(-c5nnc(-c6cnccn6)s5)cc4)c4c(N)ncnc43)CC2C1 (centres unmarked) [Compound 46, 1-(5-(4-amino-3-(4-(5-(pyrazin-2-yl)-1,3,4-thiadiazol-2-yl)phenyl)-1H-pyrazolo[3,4-d]pyrimidin-1-yl)hexahydrocyclopenta[c]pyrrol-2(1H)-yl)prop-2-en-1-one] | 1 nM | < 50% | 54.3 ± 9.1% | 88 ± 7.1%
